Data published in patent US20160220581A1, “CHROMIUM COMPOSITIONS FOR THE TREATMENT OR PREVENTION OF DIABETIC RETINOPATHY” (JDS Therapeutics, LLC, priority 2015, published 2016).

Columns and labels:
Format in all cases: in vivo, rat
[1] = test system: diabetic rats; experiment: CrHis supplementation in STZ-induced diabetic rats: body weight and blood/serum biochemical parameters
Protocol: (§1) Diabetes was induced with streptozotocin [(STZ), 55 mg/kg] by intraperitoneal injection in male Long-Evans rats. Three weeks after STZ injection, rats were divided into four groups, namely, untreated normal controls, normal rats receiving CrHis (110 μg/kg/day); untreated diabetics and diabetics treated with CrHis (110 μg/kg/day) orally for 12 weeks.
(§2) Twenty eight Long Evans rats per experiment, aged 8 weeks with 250±20 g of body weight were used in these experiments. All the animals were kept and maintained under standard guidelines. The animals were kept and maintained at 22±2° C., humidity of 55%±5% and 12/12-hour light/dark cycle. The rats were weighed every week and at the end of the study. Blood sample was collected from the tail vein of each rat for the measurement of biochemical efficacy and safety markers.
(§3) The CrHis was given in the water and administered at a concentration of 110 μg/kg bw/d) to get 9.16 μg elemental Cr (kg body/d), which is an equivalent dose of 614 μg Cr for a 70-kg adult human based on previous work. The Cr concentration of the water provided the control group was negligible (<1 μg/L). The water provided the Cr-supplemented group was initially prepared as a solution containing 3000 μg CrHis/L of water. The […] water was diluted to achieve the target Cr intake per group on the basis of measured water intake. To induce experimental diabetes, STZ was dissolved in citrate buffer (pH 4.5) and injected once intraperitoneally at a dose of 55 mg/kg to the remainder of the animals. A control group was given citrate buffer via intraperitoneal injection.
(§4) Fourteen rats were treated with STZ (55 mg/kg body weight) through intraperitoneal injection. All rats were then fasted for 16 hour prior to treatment, but they had access to drinking water. The animals were divided into 4 groups: group I (Control) rats received citrate buffer intraperitoneally and isotonic saline, orally; group II (Control+CrHis) rats were administered chromium histidinate orally (110 μg/kg body weight) daily for a period of […]; group III (Diabetic) rats received single injection of STZ (55 mg/kg body weight) intraperitoneally and were also given isotonic saline, orally for the duration of the study; group IV (Diabetic+CrHis) diabetic rats were administered chromium orally as chromium histidinate (110 μg/kg body weight) daily for a period of 12 weeks after the induction of diabetes.
(§5) Body weight and blood glucose concentrations were monitored weekly. Blood was collected from the tail vein of the rats. Blood glucose was determined by one touch glucometer (ACCU-Check Active, Roche Diagnostics, Mannheim, Germany) after the injection for 72 h. Before STZ injection, glucose concentrations of study rats and controls were measured and compared.
(§6) Blood samples were centrifuged at 3000×g for 10 min and sera were separated. Serum glucose concentrations were measured by using ACCU-Chek Active (Roche Diagnostics, Basel, Switzerland). Serum insulin levels were measured with the Rat Insulin Kit (Linco Research, St Charles, Mo.) by enzyme-linked immunosorbent assay (ELISA, Elx-800, BioTek Instruments, Winooski, Vt.). Serum concentrations of total cholesterol (TC) were measured by diagnostic kits (Sigma Diagnostics, St Louis, Mo.). Blood glycosylated haemoglobin (HbAlc) was also measured by routine kit (Alfabiotech, Milano, Italy) using the autoanalyzer.
Data were analyzed statistically using one-way ANOVA. In the analyses for the biomarker(s), the repeated statement was added in the general linear model. The group differences were attained by the Fisher's multiple comparison test [Statistical Package for the Social Sciences (SPSS)]. A P value of less than 0.05 was considered significant.

[2] = test system: normal rats; experiment: CrHis supplementation in normal rats: body weight and blood/serum biochemical parameters; settings: CrHis group, CrHis 110 μg/kg/day orally
Protocol: as §1, §2, §3, §4, §5, §6
Data were analyzed statistically using one-way ANOVA. […]

[3] = test system: glucose transporter 1 (GLUT 1); experiment: Western blot of retina GLUT 1 expression in diabetic rats; settings: diabetic rats treated with CrHis, P<0.05, FIG. 1 Panel A
Protocol: as §1
(§7) After rats were sacrificed, both eyes were either (1) enucleated and frozen at −80° C. for the measurements of the target biomarker(s) and/or other analysis or (2) are examined immediately post-sacrifice for morphological changes. […]
(§8) Equal amounts of protein (50 μg) were electrophoresed and subsequently transferred onto a nitrocellulosemembrane (Schleicher and Schuell Inc., Keene, N.H., USA). […] Bands were analyzed densitometrically using an image analysis system (Image J; National Institute of Health, Bethesda, USA).
(§9) General procedures were conducted as described above. […] The retina MDA content was measured by high performance liquid chromatography (HPLC, Shimadzu, Tokyo, Japan) using a Shimadzu UV-vis SPD-10 AVP detector and a CTO-10 AS VP column in a mobile phase consisting of 30 mM KH2PO4 and methanol (82.5+17.5, v/v; pH 3.6) at a flow rate of 1.2 ml/min. Column effluents were monitored at 250 nm and the volume was 20 μl. […]
(§10) Data are means of quadruplets of assays and expressed as relative to control (%). […]

[4] = test system: glucose transporter 3 (GLUT3); experiment: Western blot of retina GLUT3 expression in diabetic rats; settings: diabetic rats treated with CrHis, P<0.05, FIG. 1 Panel B
Protocol: as §1, §7, §8, §9, §10

[5] = test system: retina insulin; experiment: Western blot of retina insulin expression in diabetic rats; settings: diabetic rats treated with CrHis, P<0.05, FIG. 1 Panel C
Protocol: as §1, §7, §8, §9, §10

[6] = test system: retina malondialdehyde (MDA); experiment: Retina MDA content by HPLC in diabetic rats; settings: diabetic rats treated with CrHis, FIG. 1 Panel D
Protocol: as §1
General procedures were conducted as described above. After rats were sacrificed, both eyes were enucleated and frozen at −80° C. for the measurements of MDA, GLUT 1, GLUT3 and insulin. The retina MDA content was measured by high performance liquid chromatography (HPLC, Shimadzu, Tokyo, Japan) using a Shimadzu UV-vis SPD-10 AVP detector and a CTO-10 AS VP column in a mobile phase consisting of 30 mM KH2PO4 and methanol (82.5+17.5, v/v; pH 3.6) at a flow rate of 1.2 ml/min. Column effluents were monitored at 250 nm and the volume was 20 μl. The retina homogenate (10%, w/v) was prepared in 10 mM phosphate buffer (pH 7.4), centrifuged at 13,000×g for 10 min at 4° C., and the supernatant was collected and stored at −80° C. for MDA analysis.

[7] = test system: retina of diabetic rats; experiment: Histologic examination of retina in diabetic rats
Protocol: as §1
After the eye extirpation, tissue (retina) of each rat was also examined grossly. The tissue was removed for histologic study, washed with normal saline, and immersion-fixed in 10% buffered formalin immediately upon removal. They were gradually dehydrated, embedded in paraffin, cut into 5-μm sections, and stained with hematoxylin and eosin for histologic examination according to standard procedures.
General procedures were conducted as described above. Retinas were highly organized in the normal (control) rats, with intact layers. The retinas were disorganized in the diabetic rats with impaired layers. […] Similar experiments are conducted with other chromium species such as chromium nicotinate and chromium picolinate.

[8] = test system: retinal lipid oxidation; experiment: Retinal lipid oxidation by LC-MS of retinal lysate (Example 3); settings: versus other chromium complexes at equivalent total dosages of chromium
Protocol: (§11) General procedures are conducted as described above. Retinal lipids are extracted from the retinal cellular lysate and characterized by liquid chromatography-mass spectrometry.

[9] = test system: retinal photoreceptors; experiment: Free radical oxidation of retinal photoreceptors (Example 4); settings: versus other chromium complexes at equivalent total dosages of chromium
Protocol: as §11

[10] = test system: hemoglobin glycation and/or retinal protein glycation; experiment: Hemoglobin glycation and retinal protein glycation (Example 5); settings: versus other chromium complexes at equivalent total dosages of chromium
Protocol: General procedures are conducted as described above. […]. Retinal proteins are extracted from the retinal cellular lysate and characterized by liquid chromatography-mass spectrometry and/or Western Blotting.

[11] = test system: retinal lipoprotein membrane content; experiment: Loss of retinal lipoprotein membrane content (Example 6); settings: versus other chromium complexes at equivalent total dosages of chromium
Protocol: as §11

[12] = test system: retinal capillary basement membrane; experiment: Retinal capillary basement membrane thickening (Example 7); settings: versus other chromium complexes at equivalent total dosages of chromium
Protocol: General procedures are conducted as described above. Retinal capillary basement membrane thickening is characterized by physical examination of the eye using standard techniques.

[13] = test system: retinal microangiopathy; experiment: Retinal microangiopathy (Example 8); settings: versus other chromium complexes at equivalent total dosages of chromium
Protocol: General procedures are conducted as described above. Retinal microangiopathy is characterized using standard ophthalomogic techniques.

[14] = test system: retinal hard exudates; experiment: Retinal hard exudates (Example 9); settings: versus other chromium complexes at equivalent total dosages of chromium
Protocol: General procedures are conducted as described above. Retinal hard exudates are extracted from the retinal cellular lysate and characterized by liquid chromatography-mass spectrometry.

[15] = test system: diabetic retinopathy; experiment: Co-administration of chromium histidinate with insulin or metformin in diabetic retinopathy (Example 10)
Protocol: General procedures are conducted as described above. Co-administration of chromium histidinate with insulin or metformin is performed. Retinal biomarker(s) are extracted from the retinal cellular lysate and characterized by liquid chromatography-mass spectrometry.

[16] = STZ + CrHis group, diabetic rats, CrHis 110 μg/kg/day orally for 12 weeks
[17] = diabetic retinopathy rats treated with CrHis

With chromium histidinate [CrHis] the “Body weight, change in words” value ([1]; CrHis-treated diabetic rats compared to the untreated diabetic group, P<0.001) was “significantly increased”, the Body weight [1, 16] was 250 g and the Glucose [1, 16] was 290 mg/dL. The Glycosylated hemoglobin [1, 16] was 0.45 mg/g, the Insulin [1, 16] was 25.0 μU/mL and the Total cholesterol [1, 16] was 218 mg/dL. For the same substance, the “Blood glucose level, change in words” value [1, 17] was “significant increases”, the “HbAlc level, change in words” value [1, 17] was “significant increases” and the “Insulin level, change in words” value [1, 17] was “significant increases”. For the same substance, the Body weight [2] was 340 g, the Glucose [2] was 100 mg/dL and the Glycosylated hemoglobin [2] was 0.20 mg/g. The Insulin [2] was 50.3 μU/mL, the Total cholesterol [2] was 80 mg/dL and the “Expression of GLUT1 in the retina” value [3] was “reversed these changes to near control levels”. The “Expression of GLUT3 in the retina” value [4] was “reversed these changes to near control levels”, the “Expression of insulin in the retina” value [5] was “reversed these changes to near control levels” and the “MDA expression in retina” value [6] was “statistically significant reduction”. For the same substance, the “Retina organization (histology)” value ([7]; CrHis group compared to the diabetes group) was “surprisingly improved”, the “Reducing the physiological effects of diabetic retinopathy” value ([7]; versus other chromium complexes at equivalent total dosages of chromium) was “more efficacious” and the “Reducing the retinal lipid oxidation” value [8] was “more efficacious”. The “Reducing the free radical oxidation of retinal photoreceptors” value [9] was “more efficacious”, the “Reducing hemoglobin glycation and/or retinal protein glycation” value [10] was “more efficacious” and the “Decreasing the loss of retinal lipoprotein membrane content” value [11] was “more efficacious”. For the same substance, the “Preventing retinal capillary basement membrane from thickening” value [12] was “more efficacious”, the Decreasing microangiopathy [13] was “more efficacious” and the Reducing hard exudates [14] was “more efficacious”. The “Effect in treating diabetic retinopathy” value [15] was “synergistic effect”.
